{"source": "patent US8846570B2", "about": "“Herbicidal compositions comprising 4-amino-3-chloro-5-fluoro-6-(4-chloro-2-fluoro-3-methoxyphenyl)pyridine-2-carboxylic acid or a derivative thereof and microtubule inhibiting herbicides” (Dow AgroSciences LLC, priority 2012, dated 2014)", "format_in_all_cases": "in vivo", "key": {"[1]": {"system": "Chenopodium album L. (CHEAL)", "assay": "Postemergence foliar-applied, cereal crops, greenhouse: visual weed control", "settings": "21 DAA", "experimental": "(§1) Seeds of the desired test plant species were planted in Sun Gro MetroMix® 306 planting mixture, which typically has a pH of 6.0 to 6.8 and an organic matter content of about 30 percent, in plastic pots with a surface area of 103.2 square centimeters (cm^2). When required to ensure good germination and healthy plants, a fungicide treatment and/or other chemical or physical treatment was applied. The plants were grown for 7-36 days in a greenhouse with an approximate 14 hour photoperiod which was maintained at about 18° C. during the day and about 17° C. during the night. Nutrients and water were added on a regular basis and supplemental lighting was provided with overhead metal halide 1000-Watt lamps as necessary. The plants were employed for testing when they reached the second or third true leaf stage.\n(§2) Treatments consisted of the benzyl ester of 4-amino-3-chloro-5-fluoro-6-(4-chloro-2-fluoro-3-methoxy-phenyl)pyridine-2-carboxylic acid (Compound A), formulated as an SC, a second cereal herbicide alone and then both in combination.\n(§3) Other herbicidal components were applied on an active ingredient basis and included microtubule-inhibiting herbicides.\n(§4) Measured aliquots of benzyl ester of 4-amino-3-chloro-5-fluoro-6-(4-chloro-2-fluoro-3-methoxy-phenyl)pyridine-2-carboxylic acid (Compound A) were placed in 25 milliliter (mL) glass vials and diluted in a volume of 1.25% (v/v) Agri-Dex® crop oil concentrate to obtain stock solutions. Compound requirements are based upon a 12 mL application volume at a rate of 187 liters per hectare (L/ha). Spray solutions of the second cereal herbicide and experimental compound mixtures were prepared by adding the stock solutions to the appropriate amount of dilution solution to form 12 mL spray solution with active ingredients in two- and three-way combinations. Formulated compounds were applied to the plant material with an overhead Mandel track sprayer equipped with an 8002E nozzle calibrated to deliver 187 L/ha over an application area of 0.503 square meters (m^2) at a spray height of 18 inches (46 cm) above average plant canopy. Control plants were sprayed in the same manner with the solvent blank.\n(§5) The treated plants and control plants were placed in a greenhouse as described above and watered by sub-irrigation to prevent wash-off of the test compounds. After 20-22 days, the condition of the test plants as compared with that of the control plants was determined visually and scored on a scale of 0 to 100 percent where 0 corresponds to no injury and 100 corresponds to complete kill.\n(§6) Colby's equation was used to determine the herbicidal effects expected from the mixtures (Colby, S. R. 1967. Calculation of the synergistic and antagonistic response of herbicide combinations. Weeds 15:20-22.).\n(§7) The following equation was used to calculate the expected activity of mixtures containing two active ingredients, A and B: Expected=A+B−(A×B/100)"}, "[2]": {"system": "Stellaria media (L.) Vill. (STEME)", "assay": "Postemergence foliar-applied, cereal crops, greenhouse: visual weed control", "settings": "21 DAA", "experimental": "as §1, §2, §3, §4, §5, §6, §7"}, "[3]": {"system": "Sinapis arvensis L. (SINAR)", "assay": "Postemergence foliar-applied, cereal crops, greenhouse: visual weed control", "settings": "21 DAA", "experimental": "as §1, §2, §3, §4, §5, §6, §7"}, "[4]": {"system": "Papaver rhoeas L. (PAPRH)", "assay": "Postemergence foliar-applied, cereal crops, greenhouse: visual weed control", "settings": "21 DAA", "experimental": "as §1, §2, §3, §4, §5, §6, §7"}, "[5]": {"system": "Cirsium arvense (L.) Scop. (CIRAR)", "assay": "Postemergence foliar-applied, cereal crops, greenhouse: visual weed control", "settings": "21 DAA", "experimental": "as §1, §2, §3, §4, §5, §6, §7"}, "[6]": {"system": "Lamium purpureum L. (LAMPU)", "assay": "Postemergence foliar-applied, cereal crops, greenhouse: visual weed control", "settings": "21 DAA", "experimental": "as §1, §2, §3, §4, §5, §6, §7"}, "[7]": {"system": "Kochia scoparia (L.) Schrad. (KCHSC)", "assay": "Postemergence foliar-applied, cereal crops, greenhouse: visual weed control", "settings": "21 DAA", "experimental": "as §1, §2, §3, §4, §5, §6, §7"}, "[8]": {"system": "Ipomoea hederacea (L.) Jacq. (IPOHE)", "assay": "Pre-emergence soil-applied, greenhouse: visual weed control", "settings": "for Visual Weed Control (%) - 33 DAA IPOHE Obs: soil-applied pre-emergence", "source_text": "Seeds or nutlets of the desired test plant species were planted in a soil matrix prepared by mixing a loam soil (e.g., 32 percent silt, 23 percent clay, and 45 percent sand, with a pH of about 6.5 and an organic matter content of about 1.9 percent) and calcareous grit in an 80 to 20 ratio. The soil matrix was contained in plastic pots with a volume of 1 quart and a surface area of 83.6 square centimeters (cm^2).\nForms of compound A were applied on an acid equivalent basis.\nFor treatments comprised of formulated compounds, measured amounts of compounds were placed individually in 25 mL glass vials and diluted in a volume of 1.25% (v/v) Agri-Dex® crop oil concentrate (COC) to obtain 12× stock solutions. […] Application solutions were prepared by adding an appropriate amount of each stock solution (e.g., 1 mL) and diluted to the appropriate final concentrations with the addition of 10 mL of an aqueous mixture of 1.25% (v/v) COC so that the final spray solutions contained 1.25% (v/v) COC.\nFor treatments comprised of formulated and technical compounds, weighed amounts of the technical materials were placed individually in 25 mL glass vials and dissolved in a volume of 97:3 (v/v) acetone/DMSO to obtain 12× stock solutions, and measured amounts of the formulated compounds were placed individually in 25 mL glass vials and diluted in a volume of 1.5% (v/v) COC or water to obtain 12× stock solutions. […] Application solutions were prepared by adding an appropriate amount of each stock solution (e.g., 1 mL) and diluted to the appropriate final concentrations with the addition of an appropriate amount of an aqueous mixture of 1.5% (v/v) COC so that the final spray solutions contained 1.25% (v/v) COC. As required, additional water and/or 97:3 (v/v) acetone/DMSO was added to individual application solutions so that the final acetone and DMSO concentrations of the application solutions being compared were 8.1% and 0.25%, respectively.\nAll stock solutions and applications solutions were visually inspected for compound compatibility prior to application. Spray solutions were applied to the soil with an overhead Mandel track sprayer equipped with a 8002E nozzles calibrated to deliver 187 L/ha over an application area of 0.503 m^2 at a spray height of 18 inches (46 cm) above average pot height. Control pots were sprayed in the same manner with the solvent blank.\nThe treated and control pots were placed in a greenhouse and top watered as needed. […] The pots were maintained in a greenhouse with an approximate 14 hr photoperiod which was maintained at about 29° C. during the day and 26° C. during the night. Nutrients (Peters® Excel 15-5-15 5-Ca 2-Mg) were applied in the irrigation solution as needed and water was added on a regular basis. Supplemental lighting was provided with overhead metal halide 1000-Watt lamps as necessary. After approximately 4 weeks, the condition of the test plants as compared with that of the untreated plants was determined visually and scored on a scale of 0 to 100 percent where 0 corresponds to no injury or growth inhibition and 100 corresponds to complete kill.\nas §6, §7"}}}
{"compound": "COc1c(Cl)ccc(-c2nc(C(=O)OCc3ccccc3)c(Cl)c(N)c2F)c1F", "note": "[Compound A Benzyl Ester, benzyl ester of 4-amino-3-chloro-5-fluoro-6-(4-chloro-2-fluoro-3-methoxy-phenyl)pyridine-2-carboxylic acid]", "values": [{"measurement": "Visual Weed Control (%) Obs", "setting": "[1]; 2.5 g ai/ha", "value": 50, "unit": "%"}, {"measurement": "Visual Weed Control (%) Obs", "setting": "[1]; 5 g ai/ha", "value": 58, "unit": "%"}, {"measurement": "Visual Weed Control (%) Obs", "setting": "[2]; 2.5 g ai/ha", "value": 25, "unit": "%"}, {"measurement": "Visual Weed Control (%) Obs", "setting": "[2]; 5 g ai/ha", "value": 25, "unit": "%"}, {"measurement": "Visual Weed Control (%) Obs", "setting": "[2]; 10 g ai/ha", "value": 27, "unit": "%"}, {"measurement": "Visual Weed Control (%) Obs", "setting": "[3]; 2.5 g ai/ha", "value": 70, "unit": "%"}, {"measurement": "Visual Weed Control (%) Obs", "setting": "[3]; 5 g ai/ha", "value": 73, "unit": "%"}, {"measurement": "Visual Weed Control (%) Obs", "setting": "[4]; 2.5 g ai/ha", "value": 48, "unit": "%"}, {"measurement": "Visual Weed Control (%) Obs", "setting": "[4]; 5 g ai/ha", "value": 28, "unit": "%"}, {"measurement": "Visual Weed Control (%) Obs", "setting": "[4]; 10 g ai/ha", "value": 35, "unit": "%"}, {"measurement": "Visual Weed Control (%) Obs", "setting": "[5]; 2.5 g ai/ha", "value": 48, "unit": "%"}, {"measurement": "Visual Weed Control (%) Obs", "setting": "[5]; 5 g ai/ha", "value": 39, "unit": "%"}, {"measurement": "Visual Weed Control (%) Obs", "setting": "[5]; 10 g ai/ha", "value": 60, "unit": "%"}, {"measurement": "Visual Weed Control (%) Obs", "setting": "[6]; 2.5 g ai/ha", "value": 80, "unit": "%"}, {"measurement": "Visual Weed Control (%) Obs", "setting": "[6]; 5 g ai/ha", "value": 86, "unit": "%"}, {"measurement": "Visual Weed Control (%) Obs", "setting": "[6]; 10 g ai/ha", "value": 94, "unit": "%"}, {"measurement": "Visual Weed Control (%) Obs", "setting": "[7]; 2.5 g ai/ha", "value": 20, "unit": "%"}, {"measurement": "Visual Weed Control (%) Obs", "setting": "[7]; 5 g ai/ha", "value": 41, "unit": "%"}, {"measurement": "Visual Weed Control (%) Obs", "setting": "[7]; 10 g ai/ha", "value": 62, "unit": "%"}, {"measurement": "Visual Weed Control (%) Obs", "setting": "[8]; 27 DAA, 16 g ae/ha", "value": 20, "unit": "%"}, {"measurement": "Visual Weed Control (%) Obs", "setting": "[8]; 27 DAA, 32 g ae/ha", "value": 40, "unit": "%"}, {"measurement": "Visual Weed Control (%) Obs", "setting": "[8]; 33 DAA, 16 g ae/ha", "value": 0, "unit": "%"}, {"measurement": "Visual Weed Control (%) Obs", "setting": "[8]; 33 DAA, 32 g ae/ha", "value": 5, "unit": "%"}, {"measurement": "Visual Weed Control (%) - 33 DAA IPOHE Obs", "setting": "[8]; Compound A Benzyl Ester 16 g ae/ha alone, 33 DAA", "value": 0, "unit": "%"}, {"measurement": "Visual Weed Control (%) - 33 DAA IPOHE Obs", "setting": "[8]; Compound A Benzyl Ester 32 g ae/ha alone, 33 DAA", "value": 5, "unit": "%"}]}
{"compound": "CSC(=O)c1c(C(F)F)nc(C(F)(F)F)c(C(=O)SC)c1CC(C)C", "note": "[Dithiopyr, S,S′-dimethyl-2-(difluoromethyl)-4-(2-methylpropyl)-6-(trifluoromethyl)-3,5-pyridinedicarbothioate]", "values": [{"measurement": "Visual Weed Control (%) Obs", "setting": "[8]; 27 DAA, 140 g ai/ha", "value": 3, "unit": "%"}, {"measurement": "Visual Weed Control (%) Obs", "setting": "[8]; 27 DAA, 280 g ai/ha", "value": 20, "unit": "%"}]}
{"compound": "CCC(CC)Nc1c([N+](=O)[O-])cc(C)c(C)c1[N+](=O)[O-]", "note": "[Pendimethalin, N-(1-ethylpropyl)-3,4-dimethyl-2,6-dinitrobenzenamine, reference compound]", "values": [{"measurement": "Visual Weed Control (%) Obs", "setting": "[1]; 150 g ai/ha", "value": 0, "unit": "%"}, {"measurement": "Visual Weed Control (%) Obs", "setting": "[1]; 300 g ai/ha", "value": 0, "unit": "%"}, {"measurement": "Visual Weed Control (%) Obs", "setting": "[2]; 150 g ai/ha", "value": 3, "unit": "%"}, {"measurement": "Visual Weed Control (%) Obs", "setting": "[2]; 300 g ai/ha", "value": 5, "unit": "%"}, {"measurement": "Visual Weed Control (%) Obs", "setting": "[2]; 600 g ai/ha", "value": 17, "unit": "%"}, {"measurement": "Visual Weed Control (%) Obs", "setting": "[3]; 150 g ai/ha", "value": 3, "unit": "%"}, {"measurement": "Visual Weed Control (%) Obs", "setting": "[3]; 300 g ai/ha", "value": 5, "unit": "%"}, {"measurement": "Visual Weed Control (%) Obs", "setting": "[4]; 150 g ai/ha", "value": 18, "unit": "%"}, {"measurement": "Visual Weed Control (%) Obs", "setting": "[4]; 300 g ai/ha", "value": 38, "unit": "%"}, {"measurement": "Visual Weed Control (%) Obs", "setting": "[4]; 600 g ai/ha", "value": 75, "unit": "%"}, {"measurement": "Visual Weed Control (%) Obs", "setting": "[5]; 150 g ai/ha", "value": 10, "unit": "%"}, {"measurement": "Visual Weed Control (%) Obs", "setting": "[5]; 300 g ai/ha", "value": 10, "unit": "%"}, {"measurement": "Visual Weed Control (%) Obs", "setting": "[5]; 600 g ai/ha", "value": 10, "unit": "%"}, {"measurement": "Visual Weed Control (%) Obs", "setting": "[6]; 150 g ai/ha", "value": 0, "unit": "%"}, {"measurement": "Visual Weed Control (%) Obs", "setting": "[6]; 300 g ai/ha", "value": 25, "unit": "%"}, {"measurement": "Visual Weed Control (%) Obs", "setting": "[6]; 600 g ai/ha", "value": 53, "unit": "%"}, {"measurement": "Visual Weed Control (%) Obs", "setting": "[7]; 150 g ai/ha", "value": 10, "unit": "%"}, {"measurement": "Visual Weed Control (%) Obs", "setting": "[7]; 300 g ai/ha", "value": 10, "unit": "%"}, {"measurement": "Visual Weed Control (%) Obs", "setting": "[7]; 600 g ai/ha", "value": 57, "unit": "%"}]}
